The text below walks through data of US5990142A, “Benzopyran derivatives having leukotriene-antagonistic action” (Laboratorios Menarini S.A., priority 1996, dated 1999).

The target in the test is T1, LTD4 receptor (Cavia porcellus, UniProt Q2NNR5).
T1 construct: Guinea pig lung membranes, containing the LTD4 receptors, are purified; from tissue; host or cells: guinea-pig lung membranes
T1 sequence (Q2NNR5 1-340): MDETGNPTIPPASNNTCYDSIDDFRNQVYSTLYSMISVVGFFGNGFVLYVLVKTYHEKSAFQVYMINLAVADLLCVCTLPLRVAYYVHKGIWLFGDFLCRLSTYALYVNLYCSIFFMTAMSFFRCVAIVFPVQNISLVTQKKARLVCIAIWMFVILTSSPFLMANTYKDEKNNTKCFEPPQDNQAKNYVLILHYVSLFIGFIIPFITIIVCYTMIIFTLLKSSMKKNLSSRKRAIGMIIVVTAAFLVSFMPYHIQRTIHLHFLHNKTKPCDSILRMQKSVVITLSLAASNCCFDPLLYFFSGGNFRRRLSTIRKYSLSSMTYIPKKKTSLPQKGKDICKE
The experiment in a line: [^3 H]-LTD4 Receptor Binding Inhibition Test in Guinea-pig Lung Membranes. The conditions noted are these: 0.5 nM [^3 H]-LTD4, 30 min at 25° C., pH 7.4, Cheng-Prusoff. As to the method:
The antagonistic activity on LTD4 of the compounds of the present invention is determined by means of an inhibition test of the [^3 H]-LTD4 receptor binding in guinea-pig lung membranes.
[^3 H]-LTD4 Receptor Binding Inhibition Test in Guinea-pig Lung Membranes
Guinea pig lung membranes, containing the LTD4 receptors, are purified following the method described by Mong and col. (Mong et al., Prostaglandins, 1984, 28. 805). These purified membranes (150 μg/ml) are added to an incubation mixture containing 10 mM of PIPES buffer (piperazine-N,N'-bis(2-ethanesulfonic acid) (pH 7.4), 10 mM CaCl2, 10 mM MgCl2, 2 mM cysteine, 2 mM glycine, 0.5 nM [^3 H]-LTD4 (4700-6400 GBq/mmol) and different concentrations of the product under test in a final volume of 310 μl. The reaction mixture is incubated for 30 minutes at 25° C.
The radioligand bound to the membranes is separated from the free one by dilution with 4 ml washing buffer (10 mM Tris-HCl (pH 7.4) and 100 mM NaCl) at 0° C. and filtration with Whatman GF/B filters, by means of a Brandel Cell Harvester. The filters are washed 4 times with a total volume of 16 ml of washing buffer at 0° C. The radioactivity present in the filters is determined by liquid scintillation.
The specific binding is defined as the difference between the total binding of [^3 H]-LTD4 and the non-specific binding determined in the presence of 1 μM LTD4. The data obtained in the competition tests are analyzed by a computational program, which determines the inhibition constant of each compound (Ki) by means of the Cheng-Prusoff equation (Cheng et al., Biochem. Pharmacol., 1973, 22, 3094).
wherein IC50 is the concentration of compound which displaces a 50% of the bound radioligand, [L] is the concentration of [^3 H]LTD4 free in the test and Kd is the dissociation constant of the LTD4 obtained in an independent way by means of Scatchard analysis.
As for `O=C(O)c1cc(=O)c2cccc(NS(=O)(=O)c3ccc(OCCCCc4ccccc4)cc3)c2o1` [Example 19, 8-[[4-(4-Phenylbutoxy)phenyl]sulfonylamino]-4-oxo-4H-1-benzopyran-2-carboxylic acid], the Ki was 6 ± 1 nM.

The compound `O=C(O)c1cc(=O)c2cccc(/C=C/c3ccc4c(c3)CC(COCc3ccc(F)cc3)O4)c2o1` (centres unmarked) [Example 25, 8-[(E)-2-[2-(4'-Fluorobenzyloxymethyl)-2,3-dihydrobenzofuran-5-yl]ethen-1-yl]-4-oxo-4H-1-benzopyran-2-carboxylic acid] had a Ki of 1.25 ± 0.3 nM. This Ki lies about 4.8-fold lower than the previous one.

The compound `O=C(Nc1cccc2c(=O)cc(C(=O)O)oc12)c1ccc2c(c1)CCC(CCCc1ccccc1)O2` (centres unmarked) [Example 3, 8-[2-(3-Phenylpropyl)chromane-6-carboxamido]-4-oxo-4H-1-benzopyran-2-carboxylic acid] displayed a Ki of 5.6 ± 0.5 nM.

`O=C(Nc1cccc2c(=O)cc(C(=O)O)oc12)c1ccc2oc(COCc3ccccc3)cc2c1` [Example 5, 8-[2-(Benzyloxymethyl)benzofuran-5-carboxamido]-4-oxo-4H-1-benzopyran-2-carboxylic acid] came in with a Ki of 24 ± 3 nM.

For the compound `O=C(Nc1cccc2c(=O)cc(C(=O)O)oc12)c1ccc2c(c1)CC(CSCc1ccccc1)O2` (centres unmarked) [Example 10, 8-(2-Benzylthiomethyl-2,3-dihydrobenzofuran-5-carboxamido)-4-oxo-4H-1-benzopyran-2-carboxylic acid], affinity was put at a Ki of 9 ± 0.8 nM. Against the preceding compound, the Ki is about 2.7-fold lower.

`O=C(Nc1cccc2c(=O)cc(-c3nnn[nH]3)oc12)c1ccc2c(c1)CC(COCc1ccccc1)O2` (centres unmarked) [Example 7, N-[4-Oxo-2-(1H-5-tetrazolyl)-4H-1-benzopyran-8-yl]-2-benzyloxymethyl-2,3-dihydrobenzofuran-5-carboxamide]: affinity was put at a Ki of 1.88 ± 0.2 nM.

Turning to `O=C(O)c1cc(=O)c2cccc(/C=C/c3ccc(OCCCCc4ccccc4)cc3F)c2o1` [Example 24, 8-[(E)-2-[4-(4-Phenylbutoxy)-2-fluorophenyl]ethen-1-yl]-4-oxo-4H-1-benzopyran-2-carboxylic acid], the inhibition constant Ki is 22.3 ± 0.1 nM.

In turn, `O=C(Nc1cc(F)cc2c(=O)cc(C(=O)O)oc12)c1ccc2c(c1)CC(CCCc1ccccc1)O2` (centres unmarked) [Example 14, 8-[2-(3-Phenylpropyl)-2,3-dihydrobenzofuran-5-carboxamido]-6-fluoro-4-oxo-4H-1-benzopyran-2-carboxylic acid] gave a Ki of 4.2 ± 1.1 nM. This Ki lies about 5.3-fold lower than the previous one.

For `O=C(O)c1cc(=O)c2cccc(/C=C/c3ccc(OCCCCc4ccc(F)cc4)cc3)c2o1` [Example 22, 8-[(E)-2-[4-[4-(4-Fluorophenyl)butoxy]phenyl]-ethen-1-yl]-4-oxo-4H-1-benzopyran-2-carboxylic acid], affinity was put at a Ki of 6 ± 3 nM.

`O=C(Nc1cccc2c(=O)cc(C(=O)O)oc12)c1ccc2c(c1)CCC(COCc1ccccc1)O2` (centres unmarked) [Example 1, 8-[2-(Benzyloxymethyl)chromane-6-carboxamido]-4-oxo-4H-1-benzopyran-2-carboxylic acid]: the Ki was 145 ± 34 nM.

For `O=C(Nc1cccc2c(=O)cc(C(=O)O)oc12)c1ccc2c(c1)CC(CCCc1ccccc1)O2` (centres unmarked) [Example 8, 8-[2-(3-Phenylpropyl)-2,3-dihydrobenzofuran-5-carboxamido]-4-oxo-4H-1-benzopyran-2-carboxylic acid], the Ki was 1.73 ± 0.2 nM.

`O=c1cc(-c2nnn[nH]2)oc2c(/C=C/c3ccc4c(c3)CC(COCc3ccc(F)cc3)O4)cccc12` (centres unmarked) [Example 26, 8-[(E)-2-[2-(4'-fluorobenzyloxymethyl)-2,3-dihydrobenzofuran-5-yl]ethen-1-yl]-4-oxo-2-(5-1H-tetrazolyl)-4H-1-benzopyran] gave a Ki of 0.46 ± 0.1 nM.

Regarding `O=C(O)c1cc(=O)c2cccc(NC(=O)c3cc4c(cc3Cl)OC(CCCc3ccccc3)C4)c2o1` (centres unmarked) [Example 16, 8-[6-Chloro-2-(3-phenylpropyl)-2,3-dihydrobenzofuran-5-carboxamido]-4-oxo-4H-1-benzopyran-2-carboxylic acid], the Ki came to 169 ± 24 nM.

`O=C(Nc1cccc2c(=O)cc(C(=O)O)oc12)c1cc(Cl)c2c(c1)CC(CCCc1ccccc1)O2` (centres unmarked) [Example 13, 8-[7-chloro-2-(3-phenylpropyl)-2,3-dihydrobenzofuran-5-carboxamido]-4-oxo-4H-1-benzopyran-2-carboxylic acid] gave an inhibitory constant (Ki) of 9.3 ± 3 nM. This Ki is about 18-fold lower than that of the compound before.

With `O=c1cc(-c2nnn[nH]2)oc2c(/C=C/c3ccc(OCCCCc4ccccc4)cc3)cccc12` [Example 21, 8-[(E)-2-[4-(4-Phenylbutoxy)phenyl]ethen-1-yl]-4-oxo-2-(5-1H-tetrazolyl]-4H-1-benzopyran], the inhibitory constant (Ki) was found to be 0.5 ± 0.2 nM.

`O=C(Nc1cccc2c(=O)cc(-c3nnn[nH]3)oc12)c1ccc2c(c1)CCC(COCc1ccccc1)O2` (centres unmarked) [Example 2, N-[4-Oxo-2-(1H-5-tetrazolyl)-4H-1-benzopyran-8-yl]-2-(benzyloxymethyl)chromane-6-carboxamide] yielded a Ki of 12 ± 4 nM.

In the case of `O=C(Nc1cccc2c(=O)cc(-c3nnn[nH]3)oc12)c1ccc2c(c1)CC(COCc1ccc(F)cc1)O2` (centres unmarked) [Example 12, N-[4-Oxo-2-(1H-5-tetrazolyl)-4H-1-benzopyran-8-yl]-2-(4'-fluorobenzyloxymethyl)-2,3-dihydrobenzofuran-5-carboxamide], the Ki came out at 0.39 ± 0.1 nM.

`O=C(Nc1cccc2c(=O)cc(-c3nnn[nH]3)oc12)c1ccc2c(c1)CC(CCCc1ccccc1)O2` (centres unmarked) [Example 9, N-[4-Oxo-2-(1H-5-tetrazolyl)-4H-1-benzopyran-8-yl]-2-(3-phenylpropyl)-2,3-dihydrobenzofuran-5-carboxamide] showed a Ki of 1.1 ± 0.2 nM.

For the compound `O=C(O)c1cc(=O)c2cccc(OCc3ccc(OCCCCc4ccccc4)cc3)c2o1` [Example 18, 8-[[4-(4-phenylbutoxy)phenyl]methyloxy]-4-oxo-4H-1-benzopyran-2-carboxylic acid], the Ki was found to be 174 ± 43 nM.

Compound `Cc1cn(CCCCc2ccccc2)c2ccc(C(=O)Nc3cccc4c(=O)cc(-c5nnn[nH]5)oc34)cc12` [Example 17, N-[4-Oxo-2-(1H-5-tetrazolyl)-4H-1-benzopyran-8-yl]-1-(4-phenylbutyl)-3-methylindole-5-carboxamide] yielded a Ki of 1200 ± 440 nM.

Consider `O=C(Nc1cccc2c(=O)cc(C(=O)O)oc12)c1ccc2c(c1)CC(COCc1ccccc1)O2` (centres unmarked) [Example 6, 8-(2-Benzyloxymethyl-2,3-dihydrobenzofuran-5-carboxamido)-4-oxo-4H-1-benzopyran-2-carboxylic acid], for which the Ki amounted to 6 ± 2.1 nM.

In turn, `O=C(Nc1cccc2c(=O)cc(C(=O)O)oc12)c1ccc2c(c1)CC(COCc1ccc(F)cc1)O2` (centres unmarked) [Example 11, 8-[2-(4'-Fluorobenzyloxymethyl)-2,3-dihydrobenzofuran-5-carboxamido]-4-oxo-4H-1-benzopyran-2-carboxylic acid] showed a Ki of 1.9 ± 0.04 nM.

Compound `O=C(O)c1cc(=O)c2cccc(/C=C/c3ccc(OCCCCc4ccccc4)cc3)c2o1` [Example 20, 4-oxo-8-[(E)-2-[4-(4-phenylbutoxy)phenyl]ethen-1-yl]-4H-1-benzopyran-2-carboxylic acid] came in with a Ki of 6.2 ± 1.3 nM.

As to `O=C(O)c1cc(=O)c2cccc(NC(=O)c3ccc4c(c3Cl)CC(CCCc3ccccc3)O4)c2o1` (centres unmarked) [Example 15, 8-[4-Chloro-2-(3-phenylpropyl)-2,3-dihydrobenzofuran-5-carboxamido]-4-oxo-4H-1-benzopyran-2-carboxylic acid], affinity was put at a Ki of 102 ± 48 nM.

`O=c1cc(-c2nnn[nH]2)oc2c(/C=C/c3ccc(OCCCCc4ccc(F)cc4)cc3)cccc12` [Example 23, 8-[(E)-2-[4-[4-(4-Fluorophenyl)butoxy]phenyl]ethen-1-yl]-4-oxo-2-(5-1H-tetrazolyl)-4H-1-benzopyran] showed a Ki of 0.39 ± 0.1 nM. This Ki lies about 260-fold lower than the previous one.

The compound `O=C(Nc1cccc2c(=O)cc(-c3nnn[nH]3)oc12)c1ccc2c(c1)CCC(CCCc1ccccc1)O2` (centres unmarked) [Example 4, N-[4-Oxo-2-(1H-5-tetrazolyl)-4H-1-benzopyran-8-yl]-2-(3-phenylpropyl)chromane-6-carboxamide] came in with a Ki of 2.3 ± 0.2 nM. This Ki is about 5.9-fold higher than that of the compound before.
